According to patent US7319147B2, “Porphyrins and related compounds” (Bioscience Technology Investment Holdings Limited, priority 2000, dated 2008):

Key:
[1] = test system: syngeneic colo26 tumour; settings: m-THPP dose of 1.61 μmol/kg; light at 652 nm; Berenbaum et al. 1993; cited from earlier work
[2] = Normal tissue damage / cutaneous photosensitivity by ear swelling after irradiation; type: in vivo, mice; settings: 0.88 μmol/kg; same light dose 24 h after drug injection
Experimental: In a separate group of mice, the normal tissue damage was assessed by irradiating one ear with 40 Jcm^−2 of broad spectrum white light delivered using a fibre bundle from the xenon light source. The incident power at the ear surface was 638 mWcm^−2 and light was applied for 63 s. Animal ears were irradiated with light 24 h after administration of N-Me-NC-m-THPP. The opposing ear served as a control. The response was assessed twenty-four hours after irradiation by measuring the ear thickness at three sites on the upper third of the ear using a fixed-force micrometer with a vernier-interpolated resolution of 2 μm and an accuracy of 10 μm (Neill instruments).

SMILES	tumour necrosis (literature) [1] [mm]	Ear Swelling (irradiated − control; μm) [2] [μm]
Oc1cccc(-c2c3nc(c(-c4cccc(O)c4)c4ccc([nH]4)c(-c4cccc(O)c4)c4nc(c(-c5cccc(O)c5)c5ccc2[nH]5)C=C4)C=C3)c1 [m-THPP]	0.14	
Oc1cccc(-c2c3nc(c(-c4cccc(O)c4)c4ccc([nH]4)c(-c4cccc(O)c4)c4nc(c(-c5cccc(O)c5)c5ccc2[nH]5)CC4)C=C3)c1 [m-THPC, tetra(3-hydroxyphenyl)dihydroporphyrin]		41
